Key:
Brca1-mutant (Δ11) MEFs = experiment: Clonogenic survival and dose-response survival with 8-azaadenosine; type: cell-based, mouse; conditions: MEF Brca1-Δ11 vs Brca1-wildtype; 8 days clonogenic, 7 days dose-response
From the text: (§1) FIG. 7. A. Clonogenic survival of Brca1-wildtype and Brca1-mutant (Δ11) MEFs exposed to 8-azaadenosine for 8 days. B. Dose-response survival curves of Brca1-wildtype and Brca1-mutant (Δ11) MEFs exposed to increasing concentrations of 8-azaadenosine for 7 days. C. Clonogenic survival of BRCA2-wildtype and BRCA2-knockout DLD1 cells exposed to 8-azaadenosine for 8 days. D. Dose-response survival curves of BRCA2-wildtype and BRCA2-knockout DLD1 cells exposed to increasing concentrations of 8-azaadenosine for 7 days. All graphs show median. Error bars represent Standard Deviation (SD).

[1] = tested on: BRCA2-knockout DLD1 cells; experiment: as above; type: cell-based; conditions: DLD1 BRCA2-KO vs BRCA2-wildtype; 8 days clonogenic, 7 days dose-response
From the text: as §1

## Nc1ncnc2c1nnn2[C@@H]1O[C@H](CO)[C@@H](O)[C@H]1O [8-azaadenosine, 3-(β-D-Ribofuranosyl)-3H-[1,2,3]triazolo[4,5-d]pyrimidin-7-amine]
Brca1-mutant (Δ11) MEFs
  BRCA1 synthetic lethality (clonogenic survival, dose-response survival): elicited BRCA1 synthetic lethality
[1]
  BRCA2 synthetic lethality (clonogenic survival, dose-response survival): BRCA2 synthetic lethality

From patent US20260265832A1, “ADAR1 INHIBITORS FOR TREATING CANCER” (INSTITUE OF CANCER RESEARCH ROYAL CANCER HOSPITAL, priority 2023, published 2026)
